The text below walks through data of patent US20100197743A1, “Use of sulphur-containing heteroaromatic acid analogues” (Bayer CropScience AG, priority 2008, published 2010).

For the assay, the system named is black Sigatoka fungus Mycosphaerella figiensis. The assay is described as follows: Field study of black Sigatoka control on Cavendish bananas (Stover method). Also on record: key to YLI last determ. (youngest infected leaf): leaf number of youngest leaf showing Sigatoka symptoms; YLI AUDPC / SEV AUDPC: unit not given here. Conditions: for SEV last determ. (severity of the disease) / YLI last determ. (youngest infected leaf): foliar spray, eight applications at seven-day intervals, last determination Oct. 23, 2008; for SEV ABBOTT: % severity calculated as described by ABBOTT; for SEV AUDPC / YLI AUDPC: area under the disease progress curve over the complete study period. Type of assay: in vivo, Mycosphaerella figiensis on Cavendish bananas. The text has this: If the banana disease caused by the black Sigatoka fungus Mycosphaerella figiensis is not controlled, the latter can destroy the banana leaves and greatly reduce the yield. To control Sigatoka, commercially available fungicides are used which are usually applied to banana plants by foliar application.
It was intended to determine whether isotianil is capable of controlling the black Sigatoka infection with reference to studies carried out on Cavendish bananas in Devao del Norte in the southern Philippines.
Compound I-2 as defined above was formulated as a suspension concentrate formulation (200 SC) with Banol mineral oil and water in a ratio of 0.5 l of compound I-2 (200 SC), 5 l of oil and 74 l of water. The emulsifier used was 0.05 l of Lutensol so as to maintain the oil/water mixture as a stable emulsion.
After the formulation procedure, the mixture was sprayed onto banana trees using engine-driven spray mist applicators which applied a total volume of 80 l/ha.
This was followed by eight applications at seven-day intervals between Aug. 28 and Oct. 16, 2008. The isotianil application rate was 50, 75 and 100 g of a.i./ha, respectively.
For comparison with the isotianil plots, one plot was left untreated, and a further plot was sprayed with Sico (difenconazole 250 SC), a commercially available fungicide which is used for controlling black Sigatoka. Sico was sprayed together with Banol oil and Lutensol at an application rate of 100 g of a.i./ha, as above.
Each plot consisted of two banana plants at the BBCH growth stage 1056-1100. Each treatment consisted of three replications.
After the application, the disease level on the banana leaves was determined according to several parameters which are defined by the “Stover method” (Stover, 1971 R. H. Stover, A proposed international scale for estimating intensity of banana leaf spot, Tropical Agriculture).
Youngest infected leaf (YLI): This parameter records which leaf of the plant was the youngest leaf to show initial symptoms of Sigatoka infection. This is important since this has a direct relationship with the degree of infection, since the youngest leaves are infected last. Under the test conditions, the plants produce approximately one new leaf per week.
The severity of the disease (SEV) describes the direct percentage of visual disease on the plant.
The youngest infected leaf and the severity of the disease were determined weekly after the first application. The data hereinbelow describe the results of the last determination measured at the end of the experiment, on Oct. 23, 2008. After the weekly determination, moreover, the data were compiled in the form of a graph, and the area under the disease progress curve (AUDPC) was calculated over the complete study period and is listed hereinbelow. Moreover, % severity was calculated as described by ABBOTT.

Take `N#Cc1ccccc1NC(=O)c1snc(Cl)c1Cl` [Compound I-2, isotianil]: under “50 g of a.i./ha”, the “SEV last determ. (severity of the disease)” value stood at 5.3%, the “YLI last determ. (youngest infected leaf)” value turned out to be 4, the “SEV ABBOTT” value is 72.4% and the “SEV AUDPC” value stood at 314. Also, the “YLI AUDPC” value (50 g of a.i./ha) stood at 223. Moreover, under “75 g of a.i./ha”, the “SEV last determ. (severity of the disease)” value turned out to be 5%, the “YLI last determ. (youngest infected leaf)” value was determined as 4, the “SEV ABBOTT” value was 74% and the “SEV AUDPC” value turned out to be 285. Moreover, the “YLI AUDPC” value (75 g of a.i./ha) was determined as 224. Where the note is “100 g of a.i./ha”, the “SEV last determ. (severity of the disease)” value came out at 5.3%, the “YLI last determ. (youngest infected leaf)” value is on record as 4, the “SEV ABBOTT” value is 72.6% and the “SEV AUDPC” value came to 313. Moreover, the “YLI AUDPC” value (100 g of a.i./ha) came to 119.
